# Experiments:
# Type in all cases: cell-based, human
# [1] = test system: HMEC-GFP cells; assay: Scratch wound closure assay, HMEC-GFP; details: Homo sapiens
# Excerpt: In order to adapt the endothelial scratch wounding assay to the constraints of high throughput screening, we decided to use an endothelial cell line rather than primary cultures for the sake of reproducibility. Since angiogenesis is triggered by capillary endothelial cells, we selected the HMEC-1 cell line which consists of human dermal microvascular endothelial cells stably expressing SV40 […] antigen. We infected this cell line with GFP-encoding retroviral particles and selected one clone (thereafter named HMEC-GFP) that presented a high level of fluorescence and a strong proliferation rate (doubling time in the presence of serum: 22 h). We controlled that GFP expression was stable over at least 50 passages and that these cells still expressed endothelial markers such as VE-cadherin and CD31. In a standard assay, HMEC-GFP cells were grown until confluence in 96-well plates in the presence of serum, scratched with the multi-tip dispenser of the HTS automat, gently rinsed twice to eliminate detached cells and cell debris that could liberate inflammatory and potentially angiogenic cytokines, and incubated for 24 h in the presence of serum and the compounds to be tested. Each well was photographed at time 0 h (after wounding) and 24 h under a motorized epifluorescence microscope and the digitized images were analyzed using Image J to determine the percentage of wound closure (Figure 1A, 1B). Under our standard conditions, the closure rate was 72 ± 4% in the positive controls and 27 ± 4.% in the negative controls.
# Confluent cell monolayers were wounded with a plastic pipet tip, washed gently with phosphate buffer saline (PBS) and treated with complete media containing molecules, as indicated. Cells were placed at 37°C into the incubator and photographed at indicated times. Quantitation of closure of the monolayer was performed using the NIH Image J program (http://rsbweb.nih.gov/ij/). Results are expressed as percentage of wound closure at t = 24 h as compared to the initial wound at t = 0 h.
# [2] = test system: HUVEC cells; assay: Boyden chamber cell migration assay; details: 25 μM COB223 in upper chamber
# Procedure: The assay was performed using 24-multiwell plates and individual cell culture inserts bearing a porous (size of pores: 3 μm) and dyed bottom membrane, which were purchased from BD (FluoroBlok^TM). HUVEC cells were rendered fluorescent by incubation for 24 h in the presence of 5 μg/ml of Di-I (1,1′-dioctadecyl-3,3,3′3′-tetramethylindocarbocyanine perchlorate) and subsequently seeded (5 × 10^4 cells/insert) in the upper chambers (inserts) in serum-free culture medium supplemented with 25 μM COB223 or with vehicle (DMSO). Serum supplemented medium (5% FCS) was placed in the lower chambers (plate wells). After incubation for 4 h or 24 h at 37°C, the fluorescence of cells that had passed through the dyed membrane was measured on a plate reader at 540 nm/570 nm excitation/emission wavelengths. […]
# Figure S1: Effect of COB223 on endothelial cell migration. […] Wound closure was measured after 24 h and 48 h of incubation as described in Material and Methods. […]
# (B) Boyden chamber assay: The technique is described in Material and Methods. We measured the passage of fluorescently labeled HUVEC cells through a 3 μm-porous membrane in response to fetal calf serum used as a chemo-attractant. […] The Figure represents the mean fluorescence ± SD of duplicate determinations after 24 h or 48h of incubation from two independent experiments. […]
# [3] = test system: VEGFR2 phosphorylation; assay: Western blot, VEGFR2 autophosphorylation in HUVEC; details: 10 ng/mL VEGF-A 15 min, 25 μM COB223
# Procedure: (§1) Figure 9 Effect of COB223 on growth factor-induced VEGF-R2, MEK and ERK phosphorylations (A) Serum-starved HUVEC cells were incubated for 15 min in the presence of either 10 ng/mL VEGF-A or 20 ng/mL FGF-2 and in the absence or the presence of 25 μM COB223. The phosphorylations of VEGFR2 on tyrosine 1175 or tyrosine 1214, of MEK and ERK1/2 were then analyzed by Western blot analysis of the cell lysates as described in Material and Methods. Western blots for total VEGFR2, MEK and ERK1/2 were used as loading controls. The blots shown in Figure 9A were obtained in one representative experiment. (B) The hybridization signals observed in 5 similar but independent experiments were quantitated and the ratios between phospho-VEGFR2(Y1175) or (Y1214) and VEGFR2 signals were normalized to the value observed in the absence of COB223. (C) The hybridization signals observed in 5 similar but independent experiments were quantitated and the ratios between phospho-ERK1/2 and ERK1/2 and between phospho-MEK and MEK were normalized to the values observed in the absence of COB223. Additional experiments performed with 10% fetal calf serum (FCS) as a mitogen were included in this analysis. * : p < 0.05; ** : p < 0.01
# Serum-starved HUVEC cells were incubated for 15 min in the presence of either 10 ng/mL VEGF-A or 20 ng/mL FGF-2 and in the absence or the presence of indicated concentration of COB223. […]
# [4] = test system: ERK1/2 phosphorylation; assay: Western blot, ERK1/2 phosphorylation in HUVEC
# Procedure: as §1
# Figure 10 Effect of PKC inhibitors on PMA-, VEGF- and FGF2-induced ERK phoshorylation (A) Serum-starved HUVEC cells were incubated for 15 min in the presence of 10 ng/mL VEGF-A or 20 ng/mL FGF-2 and in the absence or the presence of 25 μM COB223 or 5 μM Gö6983 and 5 μM Gö6976. The phosphorylation ERK1/2 was then analyzed by Western blot analysis of the cell lysates as described in Material and Methods. Western blots for total ERK1/2 were used as loading controls. (B) Serum-starved HUVEC cells were incubated for 5 min in the presence of 200 nM of PMA and in the absence or the presence of 25 μM COB223 or 5 μM Gö6983 and 5 μM Gö6976. The hybridization signals observed were quantitated and the ratio between phospho-ERK1/2 and ERK1/2 was normalized to the values observed in the absence of COB223. Similar results were obtained in 2 independent experiments.
# Serum-starved HUVEC cells were incubated for 15 min in the presence of either 10 ng/mL VEGF-A or 20 ng/mL FGF-2 and in the absence or the presence of indicated concentration of COB223. COB223 was incubated 15 min prior to stimulation. Cells were lysed in RIPA buffer ( Tris HCl pH 7.4 10 mM, NaCl 150 mM, SDS 0.1%, Na Deoxycholate 0.5%, EDTA 1 mM, Triton X100 1% and protease inhibitor cocktail (Sigma) for protein extraction. After fractionation of proteins on a 4–15% SDS-PAGE gel and blotting to a nitrocellulose membrane, immunoblotting detection of proteins was done using indicated antibodies according to manufacturer's instruction.
compound,measurement,setting,value
"CN(C)c1cccc2c(S(=O)(=O)NCCCN3CCN(CCCNC(=O)OC(C)(C)C)CC3)cccc12 [COB223, tert-Butyl 3-(4-(3-(5-(dimethylamino)naphthalene-1-sulfonamido)propyl)piperazin-1-yl) propylcarbamate]",EC50,[1]; as quoted,5 µM
same,IC50,"[1]; wound closure after 24 h, 10% FCS, tested 3.125 μM to 100 μM",5 µM
same,migration towards fetal calf serum (Boyden chamber),[2],significantly inhibited
same,autophosphorylation of VEGFR2 on tyrosine 1175,[3],did not alter
same,autophosphorylation of VEGFR2 on tyrosine 1214,[3],did not alter
same,VEGF-induced phosphorylation of ERK1/2,"[4]; HUVEC, 10 ng/mL VEGF-A 15 min, 25 μM COB223",significantly inhibited
same,phosphorylation of ERK1/2 induced by the PKC activator PMA,"[4]; HUVEC, 200 nM PMA 5 min, 25 μM COB223",inhibited
same,concentration at which inhibition of MAP kinase phosphorylation was detectable,[4]; dose-response study,5 µM
same,concentration at which inhibition of MAP kinase phosphorylation was statistically significant,[4]; dose-response study,20 µM

# Reference: paper PMC4467156, “A new chemical inhibitor of angiogenesis and tumorigenesis that targets the VEGF signaling pathway upstream of Ras” (Oncotarget, 2015)
